Experimental data reported in patent US10092577B2, “Sterol derivatives for treating neurosensory hearing loss, and corresponding composition” (AFFICHEM, priority 2014, dated 2018).

Columns and labels:
[1] = system: spiral ganglion neurons (SGNs); experiment: Delayed treatment (after two weeks of artificial perilymph following neomycin): eABR thresholds; type: in vivo, guinea pigs; conditions: example 2, delayed treatment, 1 μM; from the fifth week; p<0.01 for DB
Description: The studies of examples 1 to 3 were performed on guinea pigs (250-500 g). All the animals were provided with a platinum-iridium electrode inserted into the cochlear in order to mimic a cochlear implant. The experiments were carried out in accordance with the protocol described by […] and collaborators (Shinohara et al., 2002, Proc. Nati. Acad. Sci. USA, 99, 1657-60). The procedure used was the same as in example 1, apart from the difference that, following the infusion of neomycin sulfate, the pumps were filled with artificial perilymph for two weeks. […] There was no eABR stimulation possible in the animals placed under the same conditions as defined above, but not treated by the products DA or DB.

[2] = system: spiral ganglion neurons (SGNs); experiment: Quantification of the density of the SGNs in Rosenthal's canal and histological analysis of cochlea slices; type: in vivo, guinea pigs
Description: The studies of examples 1 to 3 were performed on guinea pigs (250-500 g). All the animals were provided with a platinum-iridium electrode inserted into the cochlear in order to mimic a cochlear implant. The experiments were carried out in accordance with the protocol described by Raphael and collaborators (Shinohara et al., 2002, Proc. Nati. Acad. Sci. USA, 99, 1657-60).
After the final measurement of the eABR threshold, the animals were heavily anaesthetised, intraperitoneally, using sodium pentobarbital (25 mg/kg) and infused intracardially with a saline solution (37° C.), which eliminates blood, then with a cold glutaraldehyde solution (2.5% in a 0.1 M phosphate buffer), which fixes the tissues. The temporal bone was removed, then the bulla was opened to reveal the cochlea. A small window was opened in the apex of the cochlea and the membrane of the round window so as to be able to delicately wash the cochlea with the glutaraldehyde solution. The cochlea was then decalcified in a solution of EDTA (0.1 M in the phosphate buffer) so as to make it possible to make cuts. After decalcification, the cochlea was dehydrated and enclosed in “plastic JB-4” (Polyscience Inc, Warrington, Pa.). The cochlea was sectioned into slices 4 μm thick. […] The six sections of Rosenthal's channel of six slices were analysed for each group of animals (Sigma Pro Scan) so as to count the spiral ganglion neurons. […]

Molecule	eABR thresholds, treated group versus control group (artificial perilymph) [1]	appearance of the axons of the SGNs (histological analysis, FIG. 5) ([2]; cochlea slices from the modiolus, axons not distinguishable in animals treated by AP)	number of SGNs compared to the control group treated with the artificial perilymph ([2]; animals of example 1 (early treatment), GDNF 1 μg/ml, P<0.001)
CC(C)CCC[C@@H](C)[C@H]1CC[C@H]2[C@@H]3C[C@@H](NCCc4c[nH]cn4)[C@@]4(O)C[C@@H](O)CC[C@]4(C)[C@H]3CC[C@]12C [DA, 6β-[2-(1H-imidazol-4-yl)-ethylamino]-cholestane-3β,5α-diol]	no longer a significant difference		
CC(C)CCC[C@@H](C)[C@H]1CC[C@H]2[C@@H]3C[C@@H](NCCCNCCCCN)[C@@]4(O)C[C@@H](O)CC[C@]4(C)[C@H]3CC[C@]12C [DB, 6β-[3-(4-aminobutylamino)propylamino]-cholestane-3β,5α-diol]	significant difference	thin and long	
GDNF: glia cell-line derived neurotrophic factor (protein, UniProt P39905 78-211, looked up) Glial cell line-derived …: SPDKQMAVLPRRERNRQAAAANPENSRGKGRRGQRGKNRGCVLTAIHLNVTDLGLGYETKEELIFRYCSGSCDAAETTYDKILKNLSRNRRLVSDKVGQACCRPIAFDDDLSFLDDNLVYHILRKHSAKRCGCI			significant difference
